Series [1] relates to HT-29 (human colon adenocarcinoma). The series can be described thus: Inhibition of cell proliferation (MTT), HT-29. The note with it: Homo sapiens, HT-29; Table 1; 48 h of treatment (footnote); average ±SD of three experiments. It counts as cell-based.
For series [2], the system named is MCF-7 (breast adenocarcinoma). The series can be described thus: Inhibition of cell proliferation (MTT), MCF-7. It counts as cell-based, human. The note with it: Homo sapiens, MCF7; Table 1; 48 h of treatment (footnote); average ±SD of three experiments.
Series [3] deals with A-549 (human pulmonary adenocarcinoma). The experiment in a line: Inhibition of cell proliferation (MTT), A-549. The note with it: Homo sapiens, A549, 48 h, Table 1; 48 h of treatment (footnote); average ±SD of three experiments. It counts as cell-based. In outline: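 Antiproliferative activity against A-549 human pulmonary adenocarcinoma cells was measured by MTT assay. Cells were seeded at 25,000/mL in 96-well plates, cultured 24 h, then exposed to compounds at various concentrations. MTT (20 µL, 5 mg·mL^−1) was added for 2 h at 37 °C, formazan dissolved in 200 µL DMSO, and absorbance read at 540 nm. IC50 values came graphically from three independent experiments.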

Series [4] concerns HEK-293 (human embryonic kidney cells). The series can be described thus: Inhibition of cell proliferation (MTT), nontumor HEK-293. It counts as cell-based. The note with it: Homo sapiens, HEK293; Table 1; 48 h of treatment (footnote); average ±SD of three experiments.
Series [5] deals with purified tubulin. The series can be described thus: Critical concentration (CrC) for the assembly of purified tubulin in GAB. The following applies: compound 27.5 μM, tubulin 25 μM, glycerol (GAB) and GTP assembly buffer; control 7.9 ± 1.2. The series is classed as biochemical. The protocol: The effect on the self-assembly of tubulin was determined by measuring the critical concentration (CrC).

Data on one compound can be found in PMC7037732, “Synthesis of Combretastatin A-4 and 3′-Aminocombretastatin A-4 derivatives with Aminoacid Containing Pendants and Study of their Interaction with Tubulin and as Downregulators of the VEGF, hTERT and c-Myc Gene Expression” (Molecules, 2020).

As for `COc1ccc(/C=C\c2cc(OC)c(OC)c(OC)c2)cc1OCC(=O)O` [Compound 2, (Z)-2-(2-Methoxy-5-(3,4,5-trimethoxystyryl)phenoxy)acetic acid], the melting point fell in the range of 109 to 111 °C. For the same compound, in series [1], the IC50 was found to be 33 ± 6 µM. In series [2], this compound showed an IC50 of 11 ± 5 µM. In series [3], this compound came in with an IC50 of 38 ± 5 µM. In series [4], this compound registered an IC50 of 12 ± 5 µM. Further, the “CrC (critical concentration)” value in series [5] came out at 12.0 ± 0.7 µM.

A word on the IC50: it is the concentration that inhibits the measured activity by half. A lower IC50 goes with greater potency. A word on the melting point: it is the temperature of the solid-liquid transition.
